Test results taken from ChEMBL document CHEMBL1201862, “PubChem BioAssay data set” (2004).
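Exposure lasted 48 hours, with cells grown in 96-well plates and compounds tested at five concentrations. The concentration for 50% growth inhibition is given as GI50.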 Calls of active or inactive are those of the source. Rule as the data show it: active = GI50 up to about 1.1 µM and inactive = higher.

What was measured:
Assay in all cases: DTP human tumour cell line panel, 48 h
786-0 = test system: 786-0
A498 = test system: A498
A549 = test system: A549
ACHN = test system: ACHN
BT-549 = test system: BT-549
CAKI-1 = test system: CAKI-1
CCRF-CEM = test system: CCRF-CEM
COLO 205 = test system: COLO 205
DU-145 = test system: DU-145
EKVX = test system: EKVX
HCC 2998 = test system: HCC 2998
HCT-116 = test system: HCT-116
HCT-15 = test system: HCT-15
HL-60 = test system: HL-60
HOP-62 = test system: HOP-62
HOP-92 = test system: HOP-92
HT-29 = test system: HT-29
Hs-578T = test system: Hs-578T
IGROV-1 = test system: IGROV-1
K562 = test system: K562
KM12 = test system: KM12
LOX IMVI = test system: LOX IMVI
M14 = test system: M14
MCF7 = test system: MCF7
MDA-MB-231 = test system: MDA-MB-231
MDA-MB-435 = test system: MDA-MB-435
MDA-N = test system: MDA-N
MOLT-4 = test system: MOLT-4
Malme-3M = test system: Malme-3M
NCI-H226 = test system: NCI-H226
NCI-H23 = test system: NCI-H23
NCI-H460 = test system: NCI-H460
NCI-H522 = test system: NCI-H522
NCI/ADR-RES = test system: NCI/ADR-RES
OVCAR-3 = test system: OVCAR-3
OVCAR-5 = test system: OVCAR-5
OVCAR-8 = test system: OVCAR-8
PC-3 = test system: PC-3
RPMI-8226 = test system: RPMI-8226
RXF 393 = test system: RXF 393
SF-268 = test system: SF-268
SF-295 = test system: SF-295
SF-539 = test system: SF-539
SK-MEL-28 = test system: SK-MEL-28
SK-MEL-2 = test system: SK-MEL-2
SK-MEL-5 = test system: SK-MEL-5
SK-OV-3 = test system: SK-OV-3
SNB-19 = test system: SNB-19
SNB-75 = test system: SNB-75
SR = test system: SR
SW-620 = test system: SW-620
T47D = test system: T47D
TK-10 = test system: TK-10
U-251 = test system: U-251
UACC-257 = test system: UACC-257
UACC-62 = test system: UACC-62
UO-31 = test system: UO-31
OVCAR-4 = test system: OVCAR-4
SN12C = test system: SN12C

Q: What does the source list for CCC(=O)NC(Nc1cccc(F)c1C)(C(F)(F)F)C(F)(F)F?
A: GI50 (786-0): > 100 µM (inactive); GI50 (A498): > 100 µM (inactive); GI50 (A549): > 100 µM (inactive); GI50 (ACHN): > 100 µM (inactive); GI50 (BT-549): > 100 µM (inactive); GI50 (CAKI-1): > 100 µM (inactive); GI50 (CCRF-CEM): > 100 µM (inactive); GI50 (COLO 205): > 100 µM (inactive); GI50 (DU-145): > 100 µM (inactive); GI50 (EKVX): > 100 µM (inactive); GI50 (HCC 2998): > 100 µM (inactive); GI50 (HCT-116): > 100 µM (inactive); GI50 (HCT-15): > 100 µM; GI50 (HL-60): > 100 µM (inactive); GI50 (HOP-62): > 100 µM (inactive); GI50 (HOP-92): > 100 µM (inactive); GI50 (HT-29): > 100 µM (inactive); GI50 (Hs-578T): 54.5 µM (inactive); GI50 (IGROV-1): > 100 µM (inactive); GI50 (K562): > 100 µM (inactive); GI50 (KM12): > 100 µM (inactive); GI50 (LOX IMVI): > 100 µM (inactive); GI50 (M14): > 100 µM (inactive); GI50 (MCF7): > 100 µM (inactive); GI50 (MDA-MB-231): > 100 µM (inactive); GI50 (MDA-MB-435): > 100 µM (inactive); GI50 (MDA-N): > 100 µM (inactive); GI50 (MOLT-4): > 100 µM (inactive); GI50 (Malme-3M): > 100 µM (inactive); GI50 (NCI-H226): > 100 µM (inactive); GI50 (NCI-H23): > 100 µM (inactive); GI50 (NCI-H460): > 100 µM (inactive); GI50 (NCI-H522): > 100 µM (inactive); GI50 (NCI/ADR-RES): > 100 µM (inactive); GI50 (OVCAR-3): > 100 µM (inactive); GI50 (OVCAR-5): > 100 µM (inactive); GI50 (OVCAR-8): > 100 µM (inactive); GI50 (PC-3): > 100 µM (inactive); GI50 (RPMI-8226): > 100 µM (inactive); GI50 (RXF 393): 3.88 µM (inactive); GI50 (SF-268): > 100 µM (inactive); GI50 (SF-295): > 100 µM (inactive); GI50 (SF-539): > 100 µM (inactive); GI50 (SK-MEL-28): > 100 µM (inactive); GI50 (SK-MEL-2): > 100 µM (inactive); GI50 (SK-MEL-5): > 100 µM (inactive); GI50 (SK-OV-3): > 100 µM (inactive); GI50 (SNB-19): > 100 µM (inactive); GI50 (SNB-75): > 100 µM (inactive); GI50 (SR): 75.3 µM (inactive); GI50 (SW-620): > 100 µM (inactive); GI50 (T47D): > 100 µM (inactive); GI50 (TK-10): > 100 µM (inactive); GI50 (U-251): > 100 µM (inactive); GI50 (UACC-257): > 100 µM (inactive); GI50 (UACC-62): > 100 µM (inactive); GI50 (UO-31): 94.6 µM (inactive)

Q: Nc1nc(Cl)c(N)c(NCC2(CO)CC(OCc3ccccc3)C2)n1 (stereo unspecified) was tested. Which GI50 (786-0) did it give?
A: > 100 µM (inactive)

Q: And the GI50 (A498)?
A: 76.4 µM (inactive)

Q: What about the GI50 (A549) of the same compound?
A: > 100 µM (inactive)

Q: And the GI50 (ACHN)?
A: > 100 µM (inactive)

Q: And the GI50 (BT-549)?
A: > 100 µM (inactive)

Q: What about the GI50 (CAKI-1) of the same compound?
A: > 100 µM (inactive)

Q: And the GI50 (CCRF-CEM)?
A: > 100 µM (inactive)

Q: What about the GI50 (COLO 205) of the same compound?
A: > 100 µM (inactive)

Q: What about the GI50 (DU-145) of the same compound?
A: > 100 µM (inactive)

Q: And the GI50 (EKVX)?
A: > 100 µM (inactive)

Q: What about the GI50 (HCC 2998) of the same compound?
A: 82 µM (inactive)

Q: What about the GI50 (HCT-116) of the same compound?
A: 44.8 µM (inactive)

Q: And the GI50 (HCT-15)?
A: > 100 µM

Q: And the GI50 (HL-60)?
A: > 100 µM (inactive)

Q: And the GI50 (HOP-62)?
A: > 100 µM (inactive)

Q: And the GI50 (HOP-92)?
A: > 100 µM (inactive)

Q: And the GI50 (HT-29)?
A: > 100 µM (inactive)

Q: What about the GI50 (Hs-578T) of the same compound?
A: > 100 µM (inactive)

Q: And the GI50 (IGROV-1)?
A: > 100 µM (inactive)

Q: And the GI50 (K562)?
A: 74.6 µM (inactive)

Q: And the GI50 (KM12)?
A: > 100 µM (inactive)

Q: What about the GI50 (LOX IMVI) of the same compound?
A: 9.35 µM (inactive)

Q: And the GI50 (M14)?
A: > 100 µM (inactive)

Q: And the GI50 (MCF7)?
A: 11.3 µM (inactive)

Q: What about the GI50 (MDA-MB-231) of the same compound?
A: > 100 µM (inactive)

Q: And the GI50 (MDA-MB-435)?
A: > 100 µM (inactive)

Q: And the GI50 (MDA-N)?
A: > 100 µM (inactive)

Q: What about the GI50 (MOLT-4) of the same compound?
A: > 100 µM (inactive)

Q: And the GI50 (Malme-3M)?
A: > 100 µM (inactive)

Q: And the GI50 (NCI-H226)?
A: > 100 µM (inactive)

Q: And the GI50 (NCI-H23)?
A: 4.17 µM (inactive)

Q: And the GI50 (NCI-H460)?
A: > 100 µM (inactive)

Q: What about the GI50 (NCI-H522) of the same compound?
A: > 100 µM (inactive)

Q: What about the GI50 (NCI/ADR-RES) of the same compound?
A: 48 µM (inactive)

Q: And the GI50 (OVCAR-3)?
A: > 100 µM (inactive)

Q: And the GI50 (OVCAR-4)?
A: > 100 µM (inactive)

Q: What about the GI50 (OVCAR-5) of the same compound?
A: > 100 µM (inactive)

Q: What about the GI50 (OVCAR-8) of the same compound?
A: > 100 µM (inactive)

Q: What about the GI50 (PC-3) of the same compound?
A: > 100 µM (inactive)

Q: And the GI50 (RPMI-8226)?
A: > 100 µM (inactive)

Q: What about the GI50 (RXF 393) of the same compound?
A: > 100 µM (inactive)

Q: What about the GI50 (SF-268) of the same compound?
A: > 100 µM (inactive)

Q: And the GI50 (SF-295)?
A: > 100 µM (inactive)

Q: What about the GI50 (SF-539) of the same compound?
A: > 100 µM (inactive)

Q: What about the GI50 (SK-MEL-28) of the same compound?
A: > 100 µM (inactive)

Q: What about the GI50 (SK-MEL-2) of the same compound?
A: > 100 µM (inactive)

Q: What about the GI50 (SK-MEL-5) of the same compound?
A: 20.4 µM (inactive)

Q: What about the GI50 (SK-OV-3) of the same compound?
A: > 100 µM (inactive)

Q: And the GI50 (SN12C)?
A: > 100 µM (inactive)

Q: And the GI50 (SNB-19)?
A: > 100 µM (inactive)

Q: And the GI50 (SNB-75)?
A: 70 µM (inactive)

Q: And the GI50 (SR)?
A: 6.5 µM (inactive)

Q: What about the GI50 (SW-620) of the same compound?
A: > 100 µM (inactive)

Q: And the GI50 (T47D)?
A: 23.7 µM (inactive)

Q: And the GI50 (TK-10)?
A: 44 µM (inactive)

Q: What about the GI50 (U-251) of the same compound?
A: > 100 µM (inactive)

Q: And the GI50 (UACC-257)?
A: 48.4 µM (inactive)

Q: And the GI50 (UACC-62)?
A: > 100 µM (inactive)

Q: What about the GI50 (UO-31) of the same compound?
A: > 100 µM (inactive)
